In experiment [1] the test system is Dbp gene expression in whole blood. The experiment can be described thus: Dbp mRNA in whole blood of db/db mice. The experiment is classed as in vivo, mouse. The conditions noted are these: 100 mg/kg PO once daily for three days at ZT0, sampled ZT7.5. Here is the method:
For whole blood RNA studies, male db/db mice (9 weeks of age, The Jackson Laboratory, Bar Harbor, Me.) were used for the experiment with n=8 mice for each experimental group. […] On the final day at ZT7.5 (2:30 pm), animals were euthanized using CO2 asphyxiation, and the blood collected from the heart via cardiac puncture. The blood was placed in RNALater solution to 1.5 ml total volume. Total RNA was prepared using an Ambion Mouse RiboPure Blood RNA Isolation Kit AM1951 as follows. Samples were centrifuged for 3 minutes, discarding the supernatant. Two ml of lysis solution was added and vortexed, transferred to a 15 ml tube followed by the addition of […]. Lysis buffer was added to a total volume of 3.8 ml and vortexed. The sample mixture was extracted with 1.5 ml Acid Phenol: Chloroform and the aqueous phase was recovered. After adding 0.5 volumes of 100% ethanol and vortexing, the samples were passed through a filter column provided in the kit and washed with 750 microliters of wash buffer 1. The filter was washed with 2 passes of 750 microliters wash buffer 2/3 and dried. […]
For PCR analysis, the kit utilized was TaqMan® Fast Universal Master Mix (2×), No AmpErase® UNG. […] At least one housekeeping mRNA Expression Assay (e.g. GAPDH; Mm03302249_g1 or Hs02758991_g1) was included in each set of RNA samples to be assessed. […]

The subject of experiment [2] is core clock gene mRNAs in liver. The experiment can be described thus: Single dose at peak or nadir of Cry1 expression, liver core clock gene mRNAs. The class given is in vivo, mouse. The following applies: single dose at ZT0 (peak) or ZT10 (nadir); liver 7.5 hours later. As to the method:
For compounds that interact directly with the core clock mechanism, the time of dosing may be critical for maximizing their effects. […] The former (ZTO) is coincident with the peak of Cry1 and Bmal1 protein in mouse liver and the latter (ZT10) corresponds to the approximate nadir of Cry1 and Bmal1. Liver tissue was taken 7.5 hours later for each, and the samples were examined for core clock gene mRNAs by RT-qPCR.

The test system of experiment [3] is db/db mouse model of type II diabetes. The experiment in a line: Compound 72 administered over 7 days in db/db mice (glucose, insulin, compound levels). The following applies: 50 mg/kg PO QD 7 days. The class given is in vivo. The text has this:
Significance was accepted when p<0.05.

In experiment [4] the test system is rat model of cortisone-induced insulin resistance. The experiment in a line: Cortisone induced insulin resistance in rats. The experiment is classed as in vivo. The conditions noted are these: 50 mg/kg po with cortisone 30 mg/kg sc. Here is the method:
Animals were dosed with cortisone (30 mg/kg sc qd) in combination with test compounds for 6 days and then terminated 27 hours after the final dose of cortisone. A reference standard (Mifepristone) was also included. Cortisone 21-acetate (Sigma C-3130) was supplied by RenaSci and administered using a dose volume of 5 ml/kg via the subcutaneous route as a fine suspension in 1% methylcellulose. […] Mifepristone (Sigma M8046) was provided by RenaSci.
Glucose and insulin determinations were performed on plasma samples obtained from a tail vein bleed taken after a 12 h fast, approximately 27 h after the last cortisone dose. Animals were then terminated and a terminal (cardiac) blood sample taken from which plasma was prepared.
Thirty four male Sprague Dawley rats (weight range 200-250 g) were ordered from Charles River, Margate, Kent, UK. […] Subsequently, animals underwent a 3 day baseline period during which they were dosed once daily with vehicle at t=0 h (07:00). […] Body weight was recorded immediately before dosing began at 07:00 (t=0 h).
On Day 6 of dosing rats were fasted for 12 h beginning at 22:30 (timed to coincide with the Day 7 termination). […] At 10:30 on Day 7, 27 h after the final dose of cortisone, a blood sample (300 μl) was taken from the lateral tail vein into tubes containing EDTA (Sarstedt 16.444). The blood was centrifuged and resultant plasma aliquot stored at −75° C. The animals were euthanized by CO2 asphyxiation followed by cervical dislocation. Terminal blood (approximately 10 ml) was collected by cardiac puncture into tubes containing EDTA (Sarstedt 5 ml 32.332) and then centrifuged and plasma stored at −75° C. The tail vein plasma was analyzed for glucose (n=2) using a commercial clinical reagent (Thermoelectron Infinity glucose reagent (TR15421) and for insulin (n=1) using the Mercodia ultrasensitive rat insulin rat ELISA (10-1251-10).
Plasma glucose and insulin were analyzed by robust regression or general linear model with treatment as a factor and bleeding order and baseline body weight as covariates. A log transformation was used if appropriate. Appropriate multiple comparison tests (two-tailed) were used to determine significant differences from the vehicle group and from the Cortisone group. P<0.05 was considered to be statistically significant.

`O=C1NCCN1CC(O)Cn1c2ccc(F)cc2c2cc(F)ccc21` (stereo not shown) [Compound 72, 1-(3-(3,6-difluoro-9H-carbazol-9-yl)-2-hydroxypropyl)imidazolidin-2-one]: the “Dbp gene expression in whole blood” value in experiment [1] was “statistically significant suppression”. Besides, in experiment [2], the “impact on core clock mRNAs, dosing at peak vs nadir of Cry1” value was “greater relative impact on the clock mRNAs at the peak compared to the nadir”. Further, the OGTT glucose course entry in experiment [3] (db/db mice) was “lower than the vehicle control group”. In experiment [3] (vs vehicle), the “reduction of HOMA-IR” value is 33%, the “reduction of insulin at t=0” value was 20% and the “reduction of insulin at t=2 hr” value is reported as 21%. For the same molecule, in experiment [4], the fasted plasma insulin turned out to be 5.24 ± 1.11 ng/mL.

Source of the values: patent US10759777B2, “Carbazole-containing amides, carbamates, and ureas as cryptochrome modulators” (Synchronicity Pharma, Inc., priority 2014, dated 2020).
